Measured values reported in patent US20250381165A1, “Method of Use for Benzofuran Compounds” (Tampa Bay Research Institute, Inc., priority 2024, published 2025).

Legend:
Assay type in all cases: cell-based, murine
[1] = biological target: T1, MHCI/SIINFEKL complex on DC2.4 (Mus musculus, UniProt P01901); test: Displacement of SIINFEKL from DC2.4 after peptide pulse; details: 25 μg/mL BzFβ after 1 h pulse 30 nM SIINFEKL; p<0.0001
T1 construct: DC2.4 are a C57Bl/6 lineage murine cell line and as such they express MHC class I H-2Kb and H-2Db; endogenous in cells; host or cells: DC2.4 (murine dendritic cell line, from Dr. Kenneth Rock)
T1 sequence (P01901 22-369): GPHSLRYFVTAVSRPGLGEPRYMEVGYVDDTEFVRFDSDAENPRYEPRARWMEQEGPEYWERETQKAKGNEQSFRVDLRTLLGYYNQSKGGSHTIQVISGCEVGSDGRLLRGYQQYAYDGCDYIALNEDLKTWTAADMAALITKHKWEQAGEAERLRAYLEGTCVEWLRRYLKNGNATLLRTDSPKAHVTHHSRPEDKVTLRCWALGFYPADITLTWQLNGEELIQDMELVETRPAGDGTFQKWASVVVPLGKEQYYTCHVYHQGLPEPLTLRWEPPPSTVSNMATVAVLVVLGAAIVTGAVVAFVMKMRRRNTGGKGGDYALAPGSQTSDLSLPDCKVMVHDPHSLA
T1 sequence (P01887 21-119 partner): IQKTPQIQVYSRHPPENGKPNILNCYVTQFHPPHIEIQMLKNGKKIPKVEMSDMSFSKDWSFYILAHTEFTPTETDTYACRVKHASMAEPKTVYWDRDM

DC2.4 = test: CellTiter-Glo cell viability, DC2.4; set-up: effect on cell viability: unit of the concentration uncertain
Protocol: BzFβ was then examined for its effect on the viability of several murine and human cell lines and primary murine splenocytes. The cytotoxicity of BzFβ was assessed using the CellTiter-Glo […] assay system according to manufacturer's instructions to determine BzFβ's effect on the viability of several murine and human cell lines and primary murine splenocytes.
DC2.4 cell line (Dr. Kenneth Rock, University of Massachusetts), RAW 264.7 cell line (American Type Culture Collection (ATCC), Manassas, VA; TIB 71), and IMG cell line (Millipore™, Merck KGaA, Burlington, MA; cat. no. SC-C134) were each cultured in complete Dulbecco's Modified Eagle Medium (cDMEM) containing […] glucose (Gibco™, Thermo Fisher Scientific Inc., Waltham, MA; cat. no. 10566-016) and supplemented with GlutaMAX, 50 U/mL penicillin and 50 µg/mL streptomycin (Gibco™; cat. no. 15070-063) and 10% heat inactivated fetal bovine serum (FBS) (R&D Systems, Inc., Minneapolis, MN; cat. no. […]
The cytotoxicity of BzFβ was assessed using the CellTiter-Glo cell […] viability assay system […] cat. no. […] CellTiter-Glo was added 1:1 in the media and the level of chemiluminescence was measured using luminescence at wavelengths of 200 nm to 700 nm through a photomultiplier on BioTek's Synergy HTX multimode microplate reader. […]

[2] = tested on: DC2.4 cells (B3Z activation); test: Pathway inhibitor studies in DC2.4/B3Z assay; details: DC2.4, 3 μg/mL BFA, 25 μg/mL BzFβ 6 h, 0.5 nM SIINFEKL
Protocol: […]. The cytotoxicity of all inhibitors was assessed using CellTiter96 Aqueous One (Promega (Madison WI, USA); cat. no. G3580).
. The cells were then washed 2× before addition of BzFβ. Cells exposed to the other inhibitors were incubated with an appropriate concentration of each inhibitor, seen in Table 1 in cDMEM at 37° C., 5% CO2. […]. Cells were then incubated for 6 h. Before B3Z addition the inhibitor and BzFβ were removed, and the cells washed with warm DPBS. If testing peptide presentation, the DC2.4 cells were pulsed with 0.5 nM […] for 1 h prior to being cocultured with B3Z.

Compound: O=C(O)/C=C/c1ccc2occc2c1 [BzFβ, (2E)-3-(1-benzofuran-5-yl)prop-2-enoic acid]
- MHCI/SIINFEKL complex staining versus untreated cells [1]: significantly reduced
- IC50 (DC2.4; Mus musculus, DC2.4, CellTiter-Glo): 1150 µM
- effect on cell viability (DC2.4; all the cell lines examined, except HEK293T, 24 h exposure, concentrations lower than 50 µg/mL (266 (unit uncertain))): small effects on cell viability
- B3Z activation with SIINFEKL in presence of BFA [2]: unaffected
